{
  "source": "ChEMBL document CHEMBL1201862",
  "about": "“PubChem BioAssay data set” (2004)",
  "key": {"Cytochrome P450 3A4": {"molecular_target": "Cytochrome P450 3A4 (Homo sapiens, UniProt P08684)", "sequence (P08684 whole entry)": "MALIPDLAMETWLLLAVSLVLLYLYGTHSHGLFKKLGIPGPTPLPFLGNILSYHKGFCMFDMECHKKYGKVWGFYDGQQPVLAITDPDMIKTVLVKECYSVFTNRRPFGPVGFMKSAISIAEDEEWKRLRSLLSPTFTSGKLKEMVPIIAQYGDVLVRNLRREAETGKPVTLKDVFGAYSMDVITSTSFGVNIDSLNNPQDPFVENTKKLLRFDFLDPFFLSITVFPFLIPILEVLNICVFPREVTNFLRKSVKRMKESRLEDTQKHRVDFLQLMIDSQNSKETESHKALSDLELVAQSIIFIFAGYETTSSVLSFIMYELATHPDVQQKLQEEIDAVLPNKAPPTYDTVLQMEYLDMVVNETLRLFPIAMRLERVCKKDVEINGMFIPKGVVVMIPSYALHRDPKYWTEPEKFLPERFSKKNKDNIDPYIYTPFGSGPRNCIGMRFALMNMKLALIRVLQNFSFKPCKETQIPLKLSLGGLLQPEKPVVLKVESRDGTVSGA", "details": "Potency"}, "[1]": {"molecular_target": "Eukaryotic translation initiation factor 4H (Homo sapiens, UniProt Q15056)", "assay": "eIF4H binding inhibition – biochemical, uHTS, fluorescence polarization, translation initiation inhibitor project, primary screen (AID 2012)"}, "[2]": {"molecular_target": "Serine/threonine-protein phosphatase PP1-alpha catalytic subunit (Homo sapiens, UniProt P62136)", "sequence (P62136 whole entry)": "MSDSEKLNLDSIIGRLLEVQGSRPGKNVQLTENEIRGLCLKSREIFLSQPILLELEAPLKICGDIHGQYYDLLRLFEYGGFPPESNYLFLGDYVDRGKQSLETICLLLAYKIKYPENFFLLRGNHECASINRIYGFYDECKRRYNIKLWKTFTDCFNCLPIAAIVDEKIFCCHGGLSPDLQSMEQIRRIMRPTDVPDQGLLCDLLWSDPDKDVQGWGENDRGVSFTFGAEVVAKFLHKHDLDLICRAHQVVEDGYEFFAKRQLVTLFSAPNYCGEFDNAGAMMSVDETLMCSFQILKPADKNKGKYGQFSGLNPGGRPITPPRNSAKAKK", "assay": "inhibition of protein phosphatase 1 activity – biochemical, fluorescence, dose response (AID 2403);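 also: phosphatase turnover of OMFP into fluorescent 3-O-methylfluorescein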"}, "SUMO-activating enzyme [3]": {"molecular_target": "T1, SUMO-activating enzyme (Homo sapiens, UniProt Q9UBT2)", "T1 sequence (Q9UBE0 whole entry)": "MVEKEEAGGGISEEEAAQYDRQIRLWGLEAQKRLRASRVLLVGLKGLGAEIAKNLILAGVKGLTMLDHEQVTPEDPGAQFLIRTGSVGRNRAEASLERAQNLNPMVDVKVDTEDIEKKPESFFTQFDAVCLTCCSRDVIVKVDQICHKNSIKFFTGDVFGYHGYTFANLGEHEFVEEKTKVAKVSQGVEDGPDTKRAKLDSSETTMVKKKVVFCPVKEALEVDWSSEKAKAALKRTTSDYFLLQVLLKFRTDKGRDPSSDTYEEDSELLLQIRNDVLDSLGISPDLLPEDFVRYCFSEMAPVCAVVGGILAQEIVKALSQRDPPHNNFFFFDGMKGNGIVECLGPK", "T1 sequence (Q9UBT2 whole entry)": "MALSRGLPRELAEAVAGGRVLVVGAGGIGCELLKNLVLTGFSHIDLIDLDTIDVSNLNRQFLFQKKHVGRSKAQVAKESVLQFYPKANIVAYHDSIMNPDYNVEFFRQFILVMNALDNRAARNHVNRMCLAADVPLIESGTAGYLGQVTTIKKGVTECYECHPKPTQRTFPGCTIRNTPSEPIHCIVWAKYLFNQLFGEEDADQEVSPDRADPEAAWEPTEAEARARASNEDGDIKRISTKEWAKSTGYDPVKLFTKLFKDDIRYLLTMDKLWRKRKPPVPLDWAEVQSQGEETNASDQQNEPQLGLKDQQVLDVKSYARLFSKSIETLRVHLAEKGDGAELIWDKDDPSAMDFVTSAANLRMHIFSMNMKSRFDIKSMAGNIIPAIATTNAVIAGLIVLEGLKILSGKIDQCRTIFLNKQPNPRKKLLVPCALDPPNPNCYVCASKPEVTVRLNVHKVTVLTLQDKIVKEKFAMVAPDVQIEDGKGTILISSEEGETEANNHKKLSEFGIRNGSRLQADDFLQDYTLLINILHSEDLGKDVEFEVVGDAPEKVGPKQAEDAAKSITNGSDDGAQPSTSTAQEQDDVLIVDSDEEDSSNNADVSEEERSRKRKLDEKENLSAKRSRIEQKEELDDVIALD", "assay": "blockers of UBC9-mediated SUMO conjugation – biochemical, AlphaScreen, SUMOylation inhibitor project, confirmation (AID 2018)", "assay_type": "functional"}, "SUMO-activating enzyme [4]": {"molecular_target": "T1, SUMO-activating enzyme", "assay": "blockers of SAE1/SAE2–UBC9 SUMO transfer – biochemical, HTRF, uHTS, primary screen (AID 2006)", "assay_type": "protein-complex assay"}, "[5]": {"molecular_target": "T2, Serine/threonine-protein phosphatase (Homo sapiens, UniProt Q9BPW0)", "T2 sequence (Q9BPW0 whole entry)": "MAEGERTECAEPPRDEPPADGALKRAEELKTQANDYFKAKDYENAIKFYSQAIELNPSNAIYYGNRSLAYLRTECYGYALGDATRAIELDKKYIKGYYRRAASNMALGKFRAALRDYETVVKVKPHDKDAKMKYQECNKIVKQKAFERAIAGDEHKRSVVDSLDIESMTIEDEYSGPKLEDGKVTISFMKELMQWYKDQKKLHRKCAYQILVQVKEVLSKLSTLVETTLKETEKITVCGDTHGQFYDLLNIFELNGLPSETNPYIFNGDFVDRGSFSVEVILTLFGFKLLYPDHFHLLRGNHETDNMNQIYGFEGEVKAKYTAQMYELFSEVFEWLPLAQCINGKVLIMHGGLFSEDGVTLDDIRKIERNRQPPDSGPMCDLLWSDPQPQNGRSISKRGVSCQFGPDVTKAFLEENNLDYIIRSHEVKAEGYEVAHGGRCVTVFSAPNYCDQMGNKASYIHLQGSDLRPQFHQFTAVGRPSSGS", "assay": "Counterscreen for inhibitors of PP1: fluorescence-based biochemical high throughput dose response assay to identify inhibitors of Protein Phosphatase 5 (PP5). [Related pubchem assays: 2034 (Summary (PP5 inhibitors)), 1987 (PP5 inhibitors in singlate), 2235 (PP1 inhibitors in singlate)]"}, "[6]": {"molecular_target": "Polyadenylate-binding protein 1 (Homo sapiens, UniProt P11940)", "sequence (P11940 whole entry)": "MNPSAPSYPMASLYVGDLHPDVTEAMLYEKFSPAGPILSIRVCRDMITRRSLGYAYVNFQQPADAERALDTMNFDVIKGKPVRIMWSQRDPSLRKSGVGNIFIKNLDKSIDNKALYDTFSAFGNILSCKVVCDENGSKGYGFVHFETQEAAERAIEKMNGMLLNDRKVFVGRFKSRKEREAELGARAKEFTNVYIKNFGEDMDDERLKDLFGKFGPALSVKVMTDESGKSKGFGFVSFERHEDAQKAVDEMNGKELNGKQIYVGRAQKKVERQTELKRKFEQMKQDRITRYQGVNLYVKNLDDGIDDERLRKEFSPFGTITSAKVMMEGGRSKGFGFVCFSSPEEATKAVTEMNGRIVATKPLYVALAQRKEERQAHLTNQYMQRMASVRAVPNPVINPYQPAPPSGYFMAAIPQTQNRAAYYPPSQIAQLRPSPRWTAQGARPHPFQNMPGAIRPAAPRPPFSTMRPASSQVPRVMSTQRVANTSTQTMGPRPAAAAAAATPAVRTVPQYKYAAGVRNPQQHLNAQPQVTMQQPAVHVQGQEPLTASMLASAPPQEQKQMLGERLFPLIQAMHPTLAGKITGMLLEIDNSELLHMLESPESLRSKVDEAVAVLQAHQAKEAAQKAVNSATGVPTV", "assay": "blockers of PABP interaction with poly(A) – biochemical, fluorescence polarization, […] (AID 2014)"}, "[7]": {"assay": "HEK-293T cell viability reduction – luminescence, B-cell screen hits, cytotoxicity control for BCR NF-kB inhibitor project, dose response (AID 489021);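 also: HEK-293T cells carrying an NF-kB luciferase reporter; cells exposed to compound for about 14 hours before viability readout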", "assay_type": "functional, cell-based"}, "[8]": {"molecular_target": "Peroxisome proliferator-activated receptor gamma/Nuclear receptor coactivator 1 (Homo sapiens, UniProt P37231)", "assay": "(§1) TR-FRET dose response biochemical High Throughput Screening assay for agonists of the steroid receptor coactivator 1 (SRC-1) recruitment by the peroxisome proliferator-activated receptor gamma (PPAR gamma): non-selective agonists. [Related pubchem assays (depositor defined):AID1300, AID1808, AID504735, AID631]", "assay_type": "protein assay"}, "[9]": {"molecular_target": "Peroxisome proliferator-activated receptor gamma/Nuclear receptor coactivator 3 (Homo sapiens, UniProt P37231)", "assay": "as §1, with “3 (SRC-3)” for “1 (SRC-1)”, “assays: 1301 (Confirmation screen.), 1048 (Primary screen.)]” for “assays (depositor defined):AID1300, AID1808, AID504735, AID631]”", "assay_type": "functional"}, "[10]": {"molecular_target": "T3, Epstein-Barr nuclear antigen 1 (Epstein-Barr virus (strain B95-8) (HHV-4) (Human herpesvirus 4), UniProt P03211)", "T3 sequence (P03211 whole entry)": "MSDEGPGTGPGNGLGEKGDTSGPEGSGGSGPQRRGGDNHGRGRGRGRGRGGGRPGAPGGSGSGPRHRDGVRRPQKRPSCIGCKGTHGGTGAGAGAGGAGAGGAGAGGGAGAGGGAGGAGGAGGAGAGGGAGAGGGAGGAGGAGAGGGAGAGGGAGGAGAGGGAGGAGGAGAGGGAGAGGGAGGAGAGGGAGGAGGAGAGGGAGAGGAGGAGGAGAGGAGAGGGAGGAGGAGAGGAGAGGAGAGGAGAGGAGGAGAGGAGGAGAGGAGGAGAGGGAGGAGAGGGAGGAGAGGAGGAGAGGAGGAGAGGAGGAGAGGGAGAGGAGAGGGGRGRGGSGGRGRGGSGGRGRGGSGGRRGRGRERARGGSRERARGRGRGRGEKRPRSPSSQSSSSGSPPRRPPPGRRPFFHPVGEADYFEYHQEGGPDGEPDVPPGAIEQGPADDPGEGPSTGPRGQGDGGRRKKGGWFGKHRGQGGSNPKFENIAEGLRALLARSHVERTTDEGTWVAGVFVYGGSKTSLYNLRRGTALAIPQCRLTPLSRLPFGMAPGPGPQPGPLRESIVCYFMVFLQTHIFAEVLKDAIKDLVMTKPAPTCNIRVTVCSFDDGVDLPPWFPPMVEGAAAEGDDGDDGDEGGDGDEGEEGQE", "assay": "inhibition of EBV nuclear antigen 1 DNA binding – biochemical, fluorescence polarization, 1536-well, dose response (AID 2381)", "design": "species or system human gammaherpesvirus 4"}, "[11]": {"molecular_target": "Peroxisome proliferator-activated receptor gamma/Nuclear receptor coactivator 2 (Homo sapiens, UniProt P37231)", "sequence (P37231 whole entry)": "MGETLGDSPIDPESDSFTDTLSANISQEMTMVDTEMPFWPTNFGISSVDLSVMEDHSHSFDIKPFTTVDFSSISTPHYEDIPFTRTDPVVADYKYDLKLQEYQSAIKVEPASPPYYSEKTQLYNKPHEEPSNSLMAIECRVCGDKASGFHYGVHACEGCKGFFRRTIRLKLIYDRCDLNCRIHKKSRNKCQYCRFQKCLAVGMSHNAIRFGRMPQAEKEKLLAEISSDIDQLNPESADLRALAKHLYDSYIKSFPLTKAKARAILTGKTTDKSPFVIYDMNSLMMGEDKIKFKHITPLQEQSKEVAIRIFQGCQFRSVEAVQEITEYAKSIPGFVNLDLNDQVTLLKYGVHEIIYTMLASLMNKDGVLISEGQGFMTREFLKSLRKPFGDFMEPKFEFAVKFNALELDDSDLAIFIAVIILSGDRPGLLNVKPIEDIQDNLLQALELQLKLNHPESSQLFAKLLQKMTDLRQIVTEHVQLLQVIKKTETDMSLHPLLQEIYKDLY", "sequence (Q15596 whole entry, further chain)": "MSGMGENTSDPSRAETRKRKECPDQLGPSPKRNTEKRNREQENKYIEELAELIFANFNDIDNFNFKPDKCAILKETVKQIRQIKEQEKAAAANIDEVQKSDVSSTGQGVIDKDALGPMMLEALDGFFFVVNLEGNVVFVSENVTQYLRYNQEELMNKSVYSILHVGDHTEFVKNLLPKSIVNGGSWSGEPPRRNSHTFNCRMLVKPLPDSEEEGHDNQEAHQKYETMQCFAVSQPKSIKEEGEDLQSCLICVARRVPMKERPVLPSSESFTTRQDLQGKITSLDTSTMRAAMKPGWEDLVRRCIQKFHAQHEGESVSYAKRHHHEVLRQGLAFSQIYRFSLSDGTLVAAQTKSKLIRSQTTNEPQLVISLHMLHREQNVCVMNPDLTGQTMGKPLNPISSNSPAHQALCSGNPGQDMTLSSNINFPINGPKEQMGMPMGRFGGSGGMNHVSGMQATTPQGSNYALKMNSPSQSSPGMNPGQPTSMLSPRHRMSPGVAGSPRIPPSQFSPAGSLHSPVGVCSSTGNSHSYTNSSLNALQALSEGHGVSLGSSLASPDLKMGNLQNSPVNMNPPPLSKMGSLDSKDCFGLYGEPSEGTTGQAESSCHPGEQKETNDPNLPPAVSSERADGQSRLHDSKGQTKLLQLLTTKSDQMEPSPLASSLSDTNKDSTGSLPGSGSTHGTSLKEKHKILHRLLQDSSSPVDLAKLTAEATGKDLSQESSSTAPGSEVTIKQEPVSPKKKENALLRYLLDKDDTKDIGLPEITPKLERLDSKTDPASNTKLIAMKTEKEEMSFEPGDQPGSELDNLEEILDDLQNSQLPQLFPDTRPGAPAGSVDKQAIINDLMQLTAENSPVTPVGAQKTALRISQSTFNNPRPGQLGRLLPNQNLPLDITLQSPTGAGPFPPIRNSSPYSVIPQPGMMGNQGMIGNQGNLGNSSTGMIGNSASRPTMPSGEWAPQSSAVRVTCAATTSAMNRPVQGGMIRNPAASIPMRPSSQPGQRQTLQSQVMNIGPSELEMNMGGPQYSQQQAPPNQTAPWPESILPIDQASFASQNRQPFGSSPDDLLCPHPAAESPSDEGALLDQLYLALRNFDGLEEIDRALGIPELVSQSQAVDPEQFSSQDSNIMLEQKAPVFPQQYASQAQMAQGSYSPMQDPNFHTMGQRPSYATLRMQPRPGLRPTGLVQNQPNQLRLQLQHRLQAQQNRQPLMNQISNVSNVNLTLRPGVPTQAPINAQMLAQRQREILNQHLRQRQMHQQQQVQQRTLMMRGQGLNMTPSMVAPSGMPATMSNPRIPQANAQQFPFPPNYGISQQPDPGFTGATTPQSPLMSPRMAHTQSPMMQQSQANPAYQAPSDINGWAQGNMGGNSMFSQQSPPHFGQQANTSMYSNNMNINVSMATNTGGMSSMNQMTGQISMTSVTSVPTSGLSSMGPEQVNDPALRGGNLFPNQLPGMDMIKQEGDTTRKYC", "assay": "TR-FRET dose response biochemical High Throughput Screening assay for agonists of the steroid receptor coactivator 2 (SRC-2) recruitment by the peroxisome proliferator-activated receptor gamma (PPAR gamma): non-selective agonists. [Related pubchem assays: 1297, 1032 ]", "assay_type": "functional"}, "[12]": {"molecular_target": "T4, Lytic switch protein BZLF1 (Epstein-Barr virus (strain B95-8) (HHV-4) (Human herpesvirus 4), UniProt P03206)", "T4 sequence (P03206 whole entry)": "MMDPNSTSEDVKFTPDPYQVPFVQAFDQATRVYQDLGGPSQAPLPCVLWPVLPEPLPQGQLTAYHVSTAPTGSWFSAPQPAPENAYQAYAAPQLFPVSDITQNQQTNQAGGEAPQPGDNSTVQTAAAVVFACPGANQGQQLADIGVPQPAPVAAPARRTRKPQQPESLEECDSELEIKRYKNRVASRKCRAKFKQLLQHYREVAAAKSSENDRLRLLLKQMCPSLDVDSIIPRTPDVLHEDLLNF", "assay": "inhibition of BZLF1 ZTA DNA binding – biochemical, fluorescence polarization, Epstein-Barr virus, 1536-well, counter-screen for EBNA-1 inhibitor project, dose response (AID 2377)", "design": "species or system human gammaherpesvirus 4"}, "[13]": {"system": "Streptococcus sp. 'group A'", "assay": "Streptococcus pyogenes SK(-)GAS viability under kanamycin – luminescence, BacTiterGlo, confirmation, counter-screen for streptokinase expression inhibitor project, dose response (AID 1900)", "assay_type": "functional, organism-based"}, "Streptokinase A": {"molecular_target": "T5, Streptokinase A (Streptococcus pyogenes serotype M1, UniProt P10520)", "T5 sequence (P10520 whole entry)": "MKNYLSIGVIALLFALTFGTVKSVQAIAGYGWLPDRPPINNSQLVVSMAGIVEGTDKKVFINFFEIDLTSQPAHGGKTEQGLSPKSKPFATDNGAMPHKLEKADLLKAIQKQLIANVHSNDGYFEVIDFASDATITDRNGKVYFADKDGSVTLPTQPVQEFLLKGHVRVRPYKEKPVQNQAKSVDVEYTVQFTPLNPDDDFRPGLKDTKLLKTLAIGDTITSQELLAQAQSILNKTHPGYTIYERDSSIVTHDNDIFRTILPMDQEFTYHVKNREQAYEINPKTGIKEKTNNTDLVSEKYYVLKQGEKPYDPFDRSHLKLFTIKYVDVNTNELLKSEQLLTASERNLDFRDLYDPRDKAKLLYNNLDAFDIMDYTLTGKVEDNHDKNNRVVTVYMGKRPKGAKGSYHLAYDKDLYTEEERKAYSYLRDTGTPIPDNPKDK", "assay": "viability-normalized secreted streptokinase activity reduction – plasminogen activation absorbance, OD405, dose response (AID 1914)", "assay_type": "functional, Streptococcus pyogenes M1 GAS"}, "Streptococcus": {"system": "Streptococcus", "assay": "GAS UMAA2166 growth inhibition – luminescence, BacTiterGlo, counter-screen for streptokinase expression inhibitor project, dose response (AID 1915)", "assay_type": "functional, organism-based"}, "[14]": {"molecular_target": "Luciferin 4-monooxygenase (Photinus pyralis, UniProt P08659)", "sequence (P08659 whole entry)": "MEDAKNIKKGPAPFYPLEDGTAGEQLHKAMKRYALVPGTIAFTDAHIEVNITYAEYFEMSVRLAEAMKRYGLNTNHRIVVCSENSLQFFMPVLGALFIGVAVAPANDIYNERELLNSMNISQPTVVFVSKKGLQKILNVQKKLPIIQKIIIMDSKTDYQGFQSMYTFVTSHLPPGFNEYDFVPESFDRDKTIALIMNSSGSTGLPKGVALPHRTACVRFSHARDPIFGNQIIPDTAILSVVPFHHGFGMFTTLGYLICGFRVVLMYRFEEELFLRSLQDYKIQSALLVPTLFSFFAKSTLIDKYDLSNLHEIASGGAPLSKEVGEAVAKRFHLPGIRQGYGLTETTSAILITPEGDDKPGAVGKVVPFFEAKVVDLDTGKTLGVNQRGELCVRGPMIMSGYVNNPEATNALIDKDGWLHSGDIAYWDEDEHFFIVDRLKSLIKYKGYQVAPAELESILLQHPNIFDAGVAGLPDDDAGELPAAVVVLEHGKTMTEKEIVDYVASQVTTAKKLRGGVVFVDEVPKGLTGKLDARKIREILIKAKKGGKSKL", "assay": "Counter Screen for Luciferase-based Assay Positives. [Related pubchem assays: 620, 618, 411 ]"}, "HT-1080": {"system": "HT-1080", "assay": "HT1080 cell viability loss – fluorescence readout (AID 620)", "assay_type": "functional, cell-based", "details": "Homo sapiens"}},
  "note": "The source made the active and inactive calls.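 For AC50 in this document: confirmatory qHTS run detecting inhibitors and substrates of CYP3A4.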",
  "data": [
    {"smiles": "C[C@H]1[C@H](C)CC[C@]2(C(=O)O)CC[C@]3(C)C(=CCC4[C@@]5(C)C[C@@H](O)[C@H](O)[C@@](C)(CO)[C@@H]5CC[C@]43C)[C@H]12", "note": "(stereo partly specified)", "values": [
      {"measurement": "AC50", "setting": "Cytochrome P450 3A4", "result": "15.8 µM (inconclusive)"}
    ]},
    {"smiles": "N#Cc1c(-c2ccc(Cl)cc2)cc(-c2cccs2)nc1SCC(=O)O", "values": [
      {"measurement": "IC50", "setting": "[1]", "result": "10.7 µM (active)"},
      {"measurement": "IC50", "setting": "[2]", "result": "6.66 µM (active)"},
      {"measurement": "IC50", "setting": "SUMO-activating enzyme [3]", "result": "8.73 µM (active)"},
      {"measurement": "IC50", "setting": "SUMO-activating enzyme [4]", "result": "> 100 µM (inactive)"},
      {"measurement": "IC50", "setting": "[5]", "result": "> 67 µM (not active)"},
      {"measurement": "IC50", "setting": "[6]", "result": "39.7 µM (active)"}
    ]},
    {"smiles": "COc1ccc(C=C(C(C)=O)C(C)=O)cc1OC", "values": [
      {"measurement": "IC50", "setting": "[7]", "result": "> 80 µM (inactive)"}
    ]},
    {"smiles": "O=C(CSc1ncnc2c1oc1ccccc12)Nc1cccc(F)c1", "values": [
      {"measurement": "EC50", "setting": "[8]", "result": "> 26.5 µM (inactive)"},
      {"measurement": "EC50", "setting": "[9]", "result": "> 79.4 µM (not active)"},
      {"measurement": "IC50", "setting": "[10]", "result": "> 148 µM (not active)"},
      {"measurement": "EC50", "setting": "[11]", "result": "15.6 µM (not active)"},
      {"measurement": "IC50", "setting": "[12]", "result": "> 111 µM (not active)"}
    ]},
    {"smiles": "Cn1c(O)c(N=NC(=O)c2cc(-c3cccs3)nc3ccccc23)c2ccccc21", "values": [
      {"measurement": "EC50", "setting": "[13]", "result": "9.12 µM (active)"},
      {"measurement": "EC50", "setting": "Streptokinase A", "result": "> 150 µM (not active)"},
      {"measurement": "IC50", "setting": "[10]", "result": "2.73 µM (active)"},
      {"measurement": "IC50", "setting": "[12]", "result": "> 111 µM (not active)"},
      {"measurement": "EC50", "setting": "Streptococcus", "result": "16.7 µM (active)"}
    ]},
    {"smiles": "c1ccc(N2CCN(Cc3nc4ccccc4[nH]3)CC2)nc1", "values": [
      {"measurement": "AC50", "setting": "Cytochrome P450 3A4", "result": "25.1 µM (inconclusive)"}
    ]},
    {"smiles": "Cc1ccc(O)c(/C=N/NC(=O)C2=NNC(c3ccccc3)(c3ccccc3)C2)c1", "values": [
      {"measurement": "EC50", "setting": "[14]", "result": "5.52 µM (active)"},
      {"measurement": "EC50", "setting": "HT-1080", "result": "> 50 µM (not active)"}
    ]}
  ]
}
